Earlier results on one molecule are cited in patent US7205435B2 (priority 2001, dated 2007).

For the data set, the system named is mouse phrenic nerve. The following applies: in vivo.

Take `CC(C)C[C@H](NP(=O)(O)O[C@@H]1O[C@@H](C)[C@H](O)[C@@H](O)[C@H]1O)C(=O)N[C@@H](Cc1c[nH]c2ccccc12)C(=O)O` [phosphoramidon]: the effective dose is 0.2 mM.
